# Results from patent publication US20260258064A1 (SIRONAX LTD., priority 2023, published 2026).
# Target: T1, SARM1 (50-724) (Homo sapiens, UniProt Q6SZW1)
# T1 construct: Purified SARM1 (50-724) with a final concentration of 2 nM was pre-incubated with a test compound
# T1 sequence (Q6SZW1 50-724): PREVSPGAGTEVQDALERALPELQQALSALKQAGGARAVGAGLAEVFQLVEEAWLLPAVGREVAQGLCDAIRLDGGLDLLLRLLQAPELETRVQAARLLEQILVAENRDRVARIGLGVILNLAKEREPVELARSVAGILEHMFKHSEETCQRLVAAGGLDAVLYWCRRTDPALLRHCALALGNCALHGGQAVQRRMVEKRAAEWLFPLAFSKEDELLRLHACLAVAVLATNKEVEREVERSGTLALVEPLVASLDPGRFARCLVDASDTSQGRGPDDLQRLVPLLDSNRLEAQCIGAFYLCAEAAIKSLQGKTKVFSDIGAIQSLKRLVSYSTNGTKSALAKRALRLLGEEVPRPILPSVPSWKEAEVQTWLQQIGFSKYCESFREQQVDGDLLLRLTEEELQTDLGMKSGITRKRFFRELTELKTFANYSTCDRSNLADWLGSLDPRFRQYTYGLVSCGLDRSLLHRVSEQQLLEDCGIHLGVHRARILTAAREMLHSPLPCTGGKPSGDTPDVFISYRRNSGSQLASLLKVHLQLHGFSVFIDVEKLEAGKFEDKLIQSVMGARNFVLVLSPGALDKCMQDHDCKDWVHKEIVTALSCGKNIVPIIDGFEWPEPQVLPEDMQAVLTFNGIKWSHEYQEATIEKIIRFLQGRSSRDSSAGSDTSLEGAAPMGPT
# Test: SARM1 (50-724) enzymatic assay (LC-MS/MS)
# Format: biochemical
# Settings: Purified SARM1 (50-724) 2 nM, NMN as activator, NAD+ as substrate, 1 h at room temperature, read-out: IC50 (SARM1 inhibitory activity)
# Outline: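 Human SARM1 (50-724), 2 nM, pre-incubated 15 min at room temperature with compound in Dulbecco's PBS. Reaction started with 200 µM NMN (activator) plus […] NAD^+ substrate, run 1 h at room temperature, quenched with 70% acetonitrile. Turnover quantified by LC-MS/MS; IC50 reported.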
row,SMILES,IC50
1,"FC(F)(F)c1ccc2[nH]c(-c3oncc3-c3cccc(Cl)c3Cl)nc2c1 [Compound 273, 4-(2,3-dichlorophenyl)-5-(5-(trifluoromethyl)-1H-benzo[d]imidazol-2-yl)isoxazole]",100 to 500 nM
2,"Cn1cc(OC(F)(F)F)c(-n2cnnc2-c2nc3cc(C(F)(F)F)ccc3[nH]2)cc1=S [Compound 242, 1-methyl-5-(trifluoromethoxy)-4-(3-(5-(trifluoromethyl)-1H-benzo[d]imidazol-2-yl)-4H-1,2,4-triazol-4-yl)pyridine-2(1H)-thione]",≤ 100 nM
3,"NC(=O)Cn1cc(-c2cccc(F)c2Cl)c(-c2nc3cc(C(F)(F)F)ccc3[nH]2)cc1=O [Compound 199, 2-(5-(2-chloro-3-fluorophenyl)-2-oxo-4-(5-(trifluoromethyl)-1H-benzo[d]imidazol-2-yl)pyridin-1(2H)-yl)acetamide]",≤ 100 nM
4,"CC1(c2cc(F)c3[nH]c(-c4nncn4-c4cnccc4C(F)(F)F)nc3c2)COC1 [Compound 290, 7-fluoro-5-(3-methyloxetan-3-yl)-2-(4-(4-(trifluoromethyl)pyridin-3-yl)-4H-1,2,4-triazol-3-yl)-1H-benzo[d]imidazole]",≤ 100 nM
5,"FC(F)(F)c1ccc2[nH]c(-c3nncn3-c3cnccc3C(F)(F)F)c(C3CC3)c2c1 [Compound 366, 3-cyclopropyl-5-(trifluoromethyl)-2-(4-(4-(trifluoromethyl)pyridin-3-yl)-4H-1,2,4-triazol-3-yl)-1H-indole]",≤ 100 nM
6,"CS(=O)(=O)c1c(-c2nncn2-c2cccc(F)c2Cl)[nH]c2ccc(C(F)(F)F)cc12 [Compound 346, 2-[4-(2-chloro-3-fluorophenyl)-1,2,4-triazol-3-yl]-3-methanesulfonyl-5-(trifluoromethyl)-1H-indole]",≤ 100 nM
7,"Cn1cc(OC(F)(F)F)c(-n2cnnc2-c2nc3cc(C(F)(F)F)cc(F)c3[nH]2)cc1=O [Compound 222, 4-(3-(7-fluoro-5-(trifluoromethyl)-1H-benzo[d]imidazol-2-yl)-4H-1,2,4-triazol-4-yl)-1-methyl-5-(trifluoromethoxy)pyridin-2(1H)-one]",≤ 100 nM
8,"CC(C)(C)Oc1cnccc1-n1cnnc1-c1nc2cc(C(F)(F)F)ccc2[nH]1 [Compound 219, 2-(4-(3-(tert-butoxy)pyridin-4-yl)-4H-1,2,4-triazol-3-yl)-5-(trifluoromethyl)-1H-benzo[d]imidazole]",100 to 500 nM
9,"C=C(CF)c1cc(F)c2[nH]c(-c3nncn3-c3cnccc3C(F)(F)F)nc2c1 [Compound 286, 7-fluoro-5-(3-fluoroprop-1-en-2-yl)-2-(4-(4-(trifluoromethyl)pyridin-3-yl)-4H-1,2,4-triazol-3-yl)-1H-benzo[d]imidazole]",≤ 100 nM
10,"Fc1cc2[nH]c(-c3nncn3-c3cnccc3C(F)(F)F)nc2c(F)c1C1CC1 [Compound 332, 5-cyclopropyl-4,6-difluoro-2-(4-(4-(trifluoromethyl)pyridin-3-yl)-4H-1,2,4-triazol-3-yl)-1H-benzo[d]imidazole]",≤ 100 nM
11,"Oc1ccc(C(F)(F)F)c(-n2cnnc2-c2nc3cc(C(F)(F)F)ccc3[nH]2)c1 [Compound 240, 4-(trifluoromethyl)-3-(3-(5-(trifluoromethyl)-1H-benzo[d]imidazol-2-yl)-4H-1,2,4-triazol-4-yl)phenol]",≤ 100 nM
12,O=c1onc(-c2cccc(Cl)c2Cl)n1-c1nc2cc(C(F)(F)F)ccc2[nH]1 [Compound 32],> 1000 nM
13,"CS(=N)(=O)Cc1nnc(-c2nc3cc(Cl)cc(F)c3[nH]2)n1-c1cccc(F)c1Cl (stereo not shown) [Compound 192, ((4-(2-chloro-3-fluorophenyl)-5-(5-chloro-7-fluoro-1H-benzo[d]imidazol-2-yl)-4H-1,2,4-triazol-3-yl)methyl)(imino)(methyl)-16-sulfanone]",≤ 100 nM
14,"Clc1cccc(-n2cnnc2-c2nc3cc(C4CCCO4)ccc3[nH]2)c1Cl (stereo not shown) [Compound 136, 2-(4-(2,3-dichlorophenyl)-4H-1,2,4-triazol-3-yl)-5-(tetrahydrofuran-2-yl)-1H-benzo[d]imidazole]",≤ 100 nM
15,"CCc1nnc(-c2nc3cc(C(F)(F)F)ccc3[nH]2)n1-c1cccc(Cl)c1Cl [Compound 145, 2-(4-(2,3-dichlorophenyl)-5-ethyl-4H-1,2,4-triazol-3-yl)-5-(trifluoromethyl)-1H-benzo[d]imidazole]",≤ 100 nM

# Second part, the molecule after the results:
row,IC50,SMILES
1,100 to 500 nM,"Clc1cccc(-n2cnnc2-c2nc3cc(-c4cncs4)ccc3[nH]2)c1Cl [Example 78, 5-(2-(4-(2,3-dichlorophenyl)-4H-1,2,4-triazol-3-yl)-1H-benzo[d]imidazol-5-yl)thiazole]"
2,≤ 100 nM,"FC(F)(F)c1ccc2[nH]c(-c3nncn3-c3cccc(Cl)c3Cl)nc2c1 [Example 15, 2-[4-(2,3-dichlorophenyl)-1,2,4-triazol-3-yl]-5-(trifluoromethyl)-1H-benzimidazole]"
3,≤ 100 nM,"Fc1cc(C2CC23COC3)cc2nc(-c3nncn3-c3cnccc3C(F)(F)F)[nH]c12 (stereo not shown) [Compound 413, 7-fluoro-5-(5-oxaspiro[2.3]hexan-2-yl)-2-[4-[4-(trifluoromethyl)-3-pyridyl]-1,2,4-triazol-3-yl]-1H-benzimidazole]"
4,100 to 500 nM,"CS(=O)(=O)Cn1ncc(-c2nc3cc(C(F)(F)F)ccc3[nH]2)c1-c1cccc(Cl)c1Cl [Compound 439, 2-(5-(2,3-dichlorophenyl)-1-((methylsulfonyl)methyl)-1H-pyrazol-4-yl)-5-(trifluoromethyl)-1H-benzo[d]imidazole]"
5,100 to 500 nM,"FC(F)(F)c1ccc2[nH]c(-c3nnc(OC4COC4)n3-c3cccc(Cl)c3Cl)nc2c1 [Example 117, 2-(4-(2,3-dichlorophenyl)-5-(oxetan-3-yloxy)-4H-1,2,4-triazol-3-yl)-5-(trifluoromethyl)-1H-benzo[d]imidazole]"
6,≤ 100 nM,Fc1ccc(-n2cnnc2-c2nc3cc(C(F)(F)F)ccc3[nH]2)c(Cl)c1Cl [Example 85]
7,≤ 100 nM,"FC(F)(F)c1ccc2[nH]c(-c3nncn3-c3cnccc3C(F)(F)F)c(-c3cccnn3)c2c1 [Compound 426, 3-pyridazin-3-yl-5-(trifluoromethyl)-2-[4-[4-(trifluoromethyl)-3-pyridyl]-1,2,4-triazol-3-yl]-1H-indole]"
8,≤ 100 nM,"CC(c1ccncc1)c1cc(F)c2[nH]c(-c3nncn3-c3cccc(F)c3Br)nc2c1 (stereo not shown) [Compound 462, 2-(4-(2-bromo-3-fluorophenyl)-4H-1,2,4-triazol-3-yl)-7-fluoro-5-(1-(pyridin-4-yl)ethyl)-1H-benzo[d]imidazole]"
9,> 1000 nM,Cn1cc(-c2cccc(Cl)c2)c(-c2nc3cc(C(F)(F)F)ccc3[nH]2)cc1=O [Example 76]
10,≤ 100 nM,"OCCc1nnc(-c2nc3cc(C(F)(F)F)ccc3[nH]2)n1-c1cccc(Cl)c1Cl [Example 121, 2-(4-(2,3-Dichlorophenyl)-5-(5-(trifluoromethyl)-1H-benzo[d]imidazol-2-yl)-4H-1,2,4-triazol-3-yl)ethan-1-ol]"
11,≤ 100 nM,COC(=O)C(C)(C)c1ccc2[nH]c(-c3nncn3-c3cccc(Cl)c3Cl)nc2c1 [Example 102]
12,100 to 500 nM,"Cc1cc(C(F)(F)F)c(-n2cnnc2-c2nc3cc(C(F)(F)F)ccc3[nH]2)nn1 [Compound 391, 2-(4-(6-methyl-4-(trifluoromethyl)pyridazin-3-yl)-4H-1,2,4-triazol-3-yl)-5-(trifluoromethyl)-1H-benzo[d]imidazole]"
13,≤ 100 nM,COC(C)(C)c1ccc2[nH]c(-c3nncn3-c3cccc(Cl)c3Cl)nc2c1 [Example 110]
14,> 1000 nM,"CS(=O)(=O)Cn1cc(-c2nc3cc(C(F)(F)F)ccc3[nH]2)c(-c2cccc(Cl)c2Cl)n1 [Compound 438, 2-(3-(2,3-dichlorophenyl)-1-((methylsulfonyl)methyl)-1H-pyrazol-4-yl)-5-(trifluoromethyl)-1H-benzo[d]imidazole]"
15,100 to 500 nM,FC(F)(F)c1ccc2[nH]c(-c3nnnn3-c3cccc(Cl)c3Cl)nc2c1 [Example 99]
16,≤ 100 nM,"O=c1cc(-c2nc3cc(C(F)(F)F)ccc3[nH]2)c(-c2cccc(Cl)c2Cl)c[nH]1 [Example 40, 5-(2,3-dichlorophenyl)-4-[5-(trifluoromethyl)-1H-benzimidazol-2-yl]-1H-pyridin-2-one]"
17,100 to 500 nM,FC(F)(F)c1ccc2[nH]c(-c3cncnc3-c3cccc(Cl)c3Cl)nc2c1 [Example 38]
18,≤ 100 nM,"Cc1cc(-c2ccc3[nH]c(-c4nncn4-c4cccc(Cl)c4Cl)nc3c2)[nH]n1 [Example 51, 2-(4-(2,3-dichlorophenyl)-4H-1,2,4-triazol-3-yl)-5-(3-methyl-1H-pyrazol-5-yl)-1H-benzo[d]imidazole]"
19,≤ 100 nM,"CC(c1cc(F)c2[nH]c(-c3nncn3-c3cnccc3C(F)(F)F)nc2c1)c1cc[nH]n1 (stereo not shown) [Compound 430, 5-(1-(1H-pyrazol-5-yl)ethyl)-7-fluoro-2-(4-(4-(trifluoromethyl)pyridin-3-yl)-4H-1,2,4-triazol-3-yl)-1H-benzo[d]imidazole]"
